According to patent US6121264A, “Imidazole-substituted quinoxalinedione derivatives” (Yamanouchi Pharmaceutical Co., Ltd., priority 1996, dated 2000):
Like-named read-outs stand apart in the source and are kept apart here.

Key:
[1] = tested on: NMDA receptors; settings: in vivo; cited from earlier work
[2] = tested on: neuronal culture system; settings: compound alone; cited from earlier work
[3] = tested on: rat fetal hippocampus neurons; assay: Kainic acid neurotoxicity inhibition (LDH release) in primary culture of rat fetal hippocampus neurons; assay type: cell-based; settings: Neuron, 300 μM kainic acid, 24 hours, read-out: Anti-kainic acid neurotoxicity (IC50)
Description: 2) Measurement of kainic acid neurotoxicity inhibition activity:
The action of the compound of the present invention to inhibit kainic acid neurotoxicity was examined using a primary culture system of rat fetal hippocampus neurons.
Hippocampus was excised from the brain of a rat of 18 to 20 days of age and treated with enzymes papain and DNase I to disperse the cells. The cells were suspended in MEM containing 10% serum and inoculated in 4×10^5 cells/cm^2 portions into wells of a 48 well plate which has been treated in advance with poly-I-lysine, and the medium was exchanged with serum-free medium 24 hours thereafter. The medium exchange was carried out twice a week. The cells cultured for 6 days or more were used in the following test.
(2) Kainic acid neurotoxicity inhibition
The neurotoxicity was expressed as the activity of lactate dehydrogenase released in the culture medium caused by cell death. Cells exposed for 24 hours to serum-free medium containing 300 μM of kainic acid were used as the control, and the action of each of the same test compounds used in the above item 1) to inhibit neuronal death caused by kainic acid was evaluated by allowing each compound to act upon the neurons for 24 hours simultaneously with 300 μM of kainic acid.

[4] = target: AMPA receptor; assay: [3H]-AMPA binding inhibition activity; settings: about 45 nM [3H]-AMPA, rat cerebral membrane, 45 minutes on ice water
Method: 1) Measurement of [^3 H]-AMPA binding inhibition activity:
A 0.5 ml portion in total volume of a reaction solution containing about 45 nM of [^3 H]-AMPA [2-amino-3-(3-hydroxy-5-methyl-4-isoxazole)propionicacid], about […] of rat cerebral membrane samples and each of the test compounds was allowed to undergo 45 minutes of the reaction on ice water. The amount of [^3 H]-AMPA bonded to the AMPA receptor was measured by a filtration method. The portion substituted by 10 μM of quisqualic acid among the total amount of binding was defined as the amount of specific binding. Evaluation of the test compounds was carried out by calculating the ratio of binding inhibition exerted on the specific binding.
As the test compounds, the compound of Example 3, which will be described later, was used as the compound of the present invention, and a compound described as Example 1 in the aforementioned reference 1, represented by the following formula (to be referred to as comparative compound 1 hereinafter), was used as a comparative compound. […]

[5] = target: AMPA receptor; settings: Data reported at the American Society of Neuroscience (1996); read-out: AMPA binding inhibition activity (IC50); cited from earlier work
[6] = tested on: DBA/2 mice; assay: Audiogenic seizure inhibition action in DBA/2 mice; assay type: in vivo; settings: Mus musculus, ip, 0.25 h; DBA/2 male mice, intraperitoneal injection 15 minutes before sound stimulus (12 kHz, 120 dB); read-out: minimum effective dose (MED), inhibition of audiogenic seizure
Method: 3) Measurement of audiogenic seizure inhibition action in DBA/2 mice
In a sound proof box, a total of 10 male mice of 21 to 28 days of age were exposed to auditory and stimulation by the sound of 12 kHz and 120 dB was applied for 1 minute or until the mice fell into a fit of convulsions. A compound to be tested (the compound of Example 3 which will be described later) was suspended in 0.5% methyl cellulose solution or dissolved in physiological saline and administered by intraperitoneal injection 15 minutes before the sound stimulus. The drug efficacy was evaluated by the presence or absence of spasm, and the minimum effective dose (MED) was calculated.

[7] = tested on: glycine receptor; settings: in vivo; cited from earlier work
[8] = tested on: AMPA receptor; settings: in vivo; cited from earlier work

For NC(CCCP(=O)(O)O)C(=O)O (stereo not drawn) [2-amino-5-phosphonovalerianic acid], the “effect in nervous disorders induced by NMDA and in animal models of epilepsy and cerebral ischemia (in words)” value [1] is given as “effective”.

For NC(CCCCCP(=O)(O)O)C(=O)O (stereo not drawn) [2-amino-7-phosphonoheptanoic acid], the “effect in nervous disorders induced by NMDA and in animal models of epilepsy and cerebral ischemia (in words)” value [1] is listed as “effective”.

In the case of Cc1onc(O)c1CC(N)C(=O)O (stereo not drawn) [AMPA, 2-amino-3-(3-hydroxy-5-methyl-4-isoxazolyl)propionic acid], the “action in neurotoxicity test (in words)” value [2] is listed as “weak action”.

In the case of O=C(O)Cn1c(=O)c(=O)[nH]c2cc([N+](=O)[O-])c(-n3ccnc3)cc21 [Comparative compound 1], the IC50 [3] is reported as 0.8 µM and the IC50 [4] is reported as 0.14 µM.

For O=c1[nH]c2cc(C(F)(F)F)c(N3CCOCC3)cc2n(CP(=O)(O)O)c1=O [Comparative compound 2], the IC50 [5] is given as 0.15 µM.

O=c1[nH]c2cc([N+](=O)[O-])c(-n3ccnc3)cc2n(CCCCOS(=O)(=O)O)c1=O [Example 3, 4-[2,3-dioxo-7-(1H-imidazol-1-yl)-6-nitro-1,2,3,4-tetrahydroquinoxalin-1-yl]butanesulfate] gave an IC50 [3] of 0.16 µM, a minimal effective dose [6] of 3 mg/kg and an IC50 [4] of 0.039 µM.

For NC1CCN(O)C1=O (stereo not drawn) [HA-966], the “effect in experimental animal model suffering from cerebral ischemia (in words)” value [7] is listed as “useful”.

In the case of NS(=O)(=O)c1cccc2c1c([N+](=O)[O-])cc1[nH]c(=O)c(=O)[nH]c12 [NBQX], the “effect in experimental animal model suffering from cerebral ischemia (in words)” value [8] is listed as “useful”.

For C=C(C)[C@H]1CN[C@H](C(=O)O)[C@H]1CC(=O)O [kainic acid], the “action in neurotoxicity test (in words)” value [2] is listed as “induces by itself significant neuronal death”.
